Measurements: patent publication US8138118B2, “Use of hydroxyaromatics as safeners” (Bayer CropScience AG, priority 2003, dated 2012)

Assays:
Format in all cases: in vivo
[1] = system: Zea mays (corn), cv. 'Lorenzo'; test: Pre-emergence application of herbicide and safener by the tank mix method, crop damage; conditions: for Safener action as % damage reduction in crop plants: ZEAMA, safener 250 g a.i./ha + herbicide H1 100 g a.i./ha
Protocol: (§1) Seeds of various crop plants and weed species were sown in sandy loam soil in round plastic pots of a diameter of 13 cm and covered with a layer of sandy loam of a thickness of about 1 cm. Herbicides and safeners in the form of liquid (for example emulsion concentrates) or dry (for example water-dispersible powders) formulations were diluted with deionized water to the required concentration and applied to the surface of the soil with a spray bar using a water application rate of 300 liters per hectare. In the experiment shown below, the safeners were used as 20 percent strength water-dispersible powders and the herbicide isoxaflutole was used as an aqueous suspension concentrate (see table 1.1.1). The pots were placed in a greenhouse under favorable growth conditions. Visual scoring of the herbicidal action was carried out four weeks after the herbicide application. Evaluation was carried out on a percentage basis by comparison with untreated control plants (0%=no noticeable effect compared with the untreated plant, 100%=treated plant dies).

Setaria viridis [2] = test: Pre-emergence application of herbicide and safener by the tank mix method, herbicidal action on weed; conditions: four weeks
Protocol: as §1

Chenopodium album = test: as above; conditions: four weeks
Protocol: as §1

[3] = system: Glycine max (soybean), cv. 'Lambert'; test: Pre-emergence application of herbicide after seed dressing with safener, crop damage; conditions: for % damage in GLXMA: four weeks; for Safener action as % damage reduction in crop plants: GLXMA
Protocol: (§2) The number of crop plant seeds required for each application rate of safener was calculated. Sufficient seeds were weighed out into glass bottles having a screw-on lid. The volume of the glass bottles was approximately twice that of the seeds weighed out. The safeners were formulated as 20 percent strength water-dispersible powders. These formulations were weighed out to give the required application rates (g of a.i./kg of seed). The samples were added to the seed in the glass containers, and sufficient water to form a suitable seed dressing was then added. The glass bottles were closed and then mounted in an overhead shaker (which turns the bottles at moderate speed for a period of up to one hour) so that the seeds were uniformly covered with the seed dressing. The bottles were opened and the seed was ready for use in pre-emergence or post-emergence experiments, as described below. The seeds which had been treated with safener and untreated seeds as controls were sown in sandy loam soil in round plastic pots of a diameter of 13 cm and covered with a layer of sandy loam of a thickness of about 1 cm. The herbicides in the form of liquid (for example emulsion concentrates) or dry (for example water-dispersible powders) formulations were diluted with deionized water to the required concentrations and applied to the surface of the soil with a spray bar using a water application rate of 300 liters per hectare. In the two experiments shown below (results see tables 2.2.1 and 2.2.2), the herbicide isoxaflutole was used as an aqueous suspension concentrate. The pots were placed in a greenhouse under favorable growth conditions. Visual scoring of the herbicidal action was carried out four weeks after the herbicide application. Evaluation was carried out on a percentage basis by comparison with untreated control plants (0%=no noticeable effect compared with the untreated plant, […]).

[4] = system: Zea mays (corn), cv. 'Lorenzo'; test: as above; conditions: for % damage in ZEAMA: four weeks; for Safener action as % damage reduction in crop plants: ZEAMA
Protocol: as §2

[5] = system: Zea mays (corn), cv. 'Lorenzo'; test: Post-emergence application of herbicide and safener by the tank mix method, crop damage; conditions: for Safener action as % damage reduction in crop plants: ZEAMA, safener 250 g a.i./ha + herbicide H2 40 g a.i./ha; for % damage in ZEAMA: four weeks
Text: (§3) Seeds of various crop plants and weed species were sown in sandy loam soil in round plastic pots of a diameter of 13 cm and covered with a layer of sandy loam of a thickness of about 1 cm. The pots were placed in a greenhouse under favorable growth conditions for a period of about two to three weeks, allowing the plants to reach a growth stage of 2 to 4 leaves. The herbicides in the form of liquid (for example emulsion concentrates) or dry (for example water-dispersible powders) formulations were mixed with a standard additive (based on rapeseed oil methyl ester), diluted with deionized water to the required concentrations and applied to the green parts of the plants and the uncovered part of the soil surface with a spray bar using a water application rate of 300 liters per hectare. In the experiment shown below, safener and the herbicide foramsulfuron were in each case used as 20 percent strength water-dispersible powder (results see table 1.2.1). The pots were placed in a greenhouse under favorable growth conditions. Visual scoring of the herbicidal action was carried out four weeks after the herbicide application. Evaluation was carried out on a percentage basis by comparison with untreated control plants (0%=no noticeable effect compared with the untreated plant, 100%=treated plant dies).

Setaria viridis [6] = test: Post-emergence application of herbicide and safener by the tank mix method, herbicidal action on weed; conditions: four weeks
Text: as §3

Amaranthus retroflexus = test: as above; conditions: four weeks
Text: as §3

[7] = system: Zea mays (corn), cv. 'Lorenzo'; test: Post-emergence application of herbicide after seed dressing with safener, crop damage; conditions: for Safener action as % damage reduction in crop plants: ZEAMA; for % damage in ZEAMA: four weeks
Protocol: The number of crop plant seeds required for each application rate of safener was calculated. Sufficient seeds were weighed out into glass bottles having a screw-on lid. The volume of the glass bottles was approximately twice that of the seeds weighed out. The safeners were formulated as 20 percent strength water-dispersible powders. These formulations were weighed out to give the required application rates (g of a.i./kg of seed). The samples were added to the seed in the glass containers, and sufficient water to form a suitable seed dressing was then added. The glass bottles were closed and then mounted in an overhead shaker (which turns the bottles at moderate speed for a period of up to one hour) so that the seeds were uniformly covered with the seed dressing. The bottles were opened and the seed was ready for use in pre-emergence or post-emergence experiments, as described below. The seeds treated with safener and untreated seeds were sown in sandy loam soil in round plastic pots of a diameter of 13 cm and covered with a layer of sandy loam of a thickness of about 1 cm. The pots were placed in a greenhouse under favorable growth conditions for a period of about two to three weeks, allowing the plants to reach a growth stage of 2 to 4 leaves. The herbicides in the form of liquid (for example emulsion concentrates) or dry (for example water-dispersible powders) formulations were mixed with a standard additive (based on rapeseed oil methyl ester), diluted with deionized water to the required concentrations and applied to the green parts of the plants and the uncovered part of the soil surface with a spray bar using a water application rate of 300 liters per hectare. In the experiment shown below, the herbicide foramsulfuron was used as 20 percent strength water-dispersible powder (results see table 2.3.1). The pots were placed in a greenhouse under favorable growth conditions. Visual scoring of the herbicidal action was carried out four weeks after the herbicide application. Evaluation was carried out on a percentage base by comparison with untreated control plants (0%=no noticeable effect compared with the untreated plant, 100%=treated plant dies).

[8] = herbicide H1 100 g a.i./ha alone, no safener, pre-emergence
[9] = herbicide H1 100 g a.i./ha pre-emergence, untreated seeds (no safener)
[10] = safener 250 g a.i./ha + herbicide H1 (isoxaflutole) 100 g a.i./ha, pre-emergence tank mix, visual scoring four weeks after application
[11] = safener 250 g a.i./ha + herbicide H1 100 g a.i./ha, pre-emergence tank mix
[12] = safener 250 g a.i./ha + herbicide H2 (foramsulfuron) 40 g a.i./ha, post-emergence tank mix
[13] = safener 250 g a.i./ha + herbicide H2 40 g a.i./ha, post-emergence tank mix
[14] = seed dressing with safener 1 g a.i./kg of seed, herbicide H1 100 g a.i./ha pre-emergence
[15] = seed dressing with safener 1 g a.i./kg of seed, then herbicide H1 100 g a.i./ha pre-emergence
[16] = seed dressing with safener 1 g a.i./kg of seed, herbicide H2 40 g a.i./ha post-emergence
[17] = seed dressing with safener 1 g a.i./kg of seed, then herbicide H2 40 g a.i./ha post-emergence
[18] = herbicide H2 40 g a.i./ha alone, no safener, post-emergence

SMILES	Safener action as % damage reduction in crop plants ([1]; pre-emergence tank mix)	% damage in ZEAMA [1, 10]	Herbicidal action in SETVI (in %) (Setaria viridis [2]; [11])	Herbicidal action in CHEAL (in %) (Chenopodium album; [11])	Safener action as % damage reduction in crop plants ([5]; post-emergence tank mix)	% damage in ZEAMA [5, 12]	Herbicidal action as % damage in SETVI (Setaria viridis [6]; [13])	Herbicidal action as % damage in AMARE (Amaranthus retroflexus; [13])	Safener action as % damage reduction in crop plants [3, 14]	% damage in GLXMA [3, 15]	Safener action as % damage reduction in crop plants [4, 14]	% damage in ZEAMA [4, 15]	Safener action as % damage reduction in crop plants [7, 16]	% damage in ZEAMA [7, 17]	other results
CS(=O)(=O)c1cc(C(F)(F)F)ccc1C(=O)c1cnoc1C1CC1 [Herbicide H1, isoxaflutole, reference compound]															% damage in ZEAMA ([1]; herbicide H1 100 g a.i./ha alone, no safener, pre-emergence, four weeks): 23%; Herbicidal action in SETVI (in %) (Setaria viridis [2]; [8]): 92%; Herbicidal action in CHEAL (in %) (Chenopodium album; [8]): 90%; % damage in GLXMA [3, 9]: 87%; % damage in ZEAMA [4, 9]: 29%
O=C(O)c1ccc(F)cc1O [Comp. 253, 4-fluorosalicylic acid]	83%	4%	93%	90%	82%	7%	93%	91%	63%	32%	69%	9%	78%	8%	
O=C(O)c1ccc(O)cc1O [Comp. 588, 4-hydroxysalicylic acid]	61%	9%	97%	92%	74%	10%	95%	95%	69%	27%	59%	12%	73%	10%	
COc1cc(OC)nc(NC(=O)NS(=O)(=O)c2cc(NC=O)ccc2C(=O)N(C)C)n1 [Herbicide H2, foramsulfuron, reference compound]															% damage in ZEAMA [5, 18]: 39%; Herbicidal action as % damage in SETVI (Setaria viridis [6]; [18]): 93%; Herbicidal action as % damage in AMARE (Amaranthus retroflexus; [18]): 91%; % damage in ZEAMA ([7]; herbicide H2 40 g a.i./ha post-emergence, untreated seeds (no safener)): 37%
